Take `CC(C)CC(C(=O)O)c1ccc(-c2ccc(C(F)(F)F)cc2)c(OCC2CC2)c1` (stereo not shown) [Example 142, 2-(2-cyclopropylmethoxy-4′-trifluoromethyl-biphenyl-4-yl)-4-methyl-pentanoic acid]: the melting point (in general, the temperature, or range, at which the solid turns liquid) was 142 to 143 °C.

These data come from US20140187786A1, “1,3,4-TRISUBSTITUTED BENZENES” (EnVivo Pharmaceuticals, Inc., priority 2007, published 2014).
